# Laboratory results taken from patent US20090117199A1, “Method of treatment of cancer” (priority 1998, published 2009).
# Entries after “also recorded” stand apart in the source; their conditions may differ. Read-outs that look alike come from different tables or passages of the source.
# Assays:
# [1] = test system: PC-3 human prostate tumors; assay: Tumor response to IL 10% RB in saline, report 051017.02B; assay type: in vivo, Nu/nu Nude Mice; conditions: 10% RB 45 μL/tumor Qd × 1; 24 hours post injection and over 29 days of observation
# [2] = test system: melanoma lesions (stage III or IV metastatic melanoma); assay: Human trial, single IL injection of 10% RB solution in unbuffered saline
# cancer cells = conditions: essentially excluded from normal cells; cited from earlier work
# [3] = test system: A375 human melanoma xenograft tumors; conditions: for #CR + #PR/SD (%): number (percent); for MST ± SEM (mean survival time to 2.0 g tumor): single injection
# Experimental: The effects of a single IL injection of RB into A375 human melanoma xenograft tumors growing in nude mice were evaluated.
# Chemoablation studies were conducted using female nu/nu mice (Harlan), 6-9 weeks of age and approximately 20 g at study Day 1.
# Each mouse in Chemoablation study groups received a single subcutaneous implantation of the A375 melanoma tumor line. This consisted of implantation of either (1) a 1 mm^3 fragment of tissue in the flank or (2) subcutaneous injection of 100 μL of an A375 cell suspension into the flank. Treatment was initiated when the implanted tumor reached a size of approximately 70 mg (where tumor weight, in mg, was estimated using the formula (w^2×l)/2 in which w is width, and l is length in mm of the tumor).
# RB (Aldrich product No. W1843) in isotonic saline; concentrations of 0.1% RB, 1%, RB, 1%, RB, 6% RB and 10% RB (w/v) was studied. Saline was used for the injection control group.
# Treatment Plan: Mice were divided into treatment groups on study Day 1. RB treatment groups received a single IL injection of 0.1 mL RB in saline; the injection control group received a single IL injection of 0.1 mL saline. Growth control and sham treatment groups received no injection. All dosing was performed on Study Day 1. Follow up examination of the mice was conducted at regular intervals, and the test terminated on either Study day 65 or Study Day 85.
# Each animal was euthanized when its A375 neoplasm reached a size of 2.0 g.
# Treatment was assessed for occurrence of complete tumor regression (CR), partial tumor regression (PR) or stable disease (SD). The duration of CR, PR, or SD response was recorded throughout each study.
# The Log-Rank test was used to determine the statistical significance of any difference in survival experienced between treatment and control groups. […] SigmaStat 3.0 (SPSS Inc) was used for all statistical analysis. Graphs were prepared using sigmaStat 3.0 or sigma Plot 2000 (SPSS Inc.) ver 6.00.
# MCF-7 [ER+] tumors = assay: Tumor response to IL 10% RB in saline, report 020110.01B; assay type: in vivo, BALB/c Nude Mice; conditions: 10% RB IL 25-50 μL/tumor Qd × 1; within 21 days; 4/group
# [4] = 25 evaluable target lesions at final follow up
# [5] = analysed per patient, 11 patients
# [6] = larger lesions receiving 0.2 mL or greater doses of RB
smiles,measurement,setting,value
"O=C([O-])c1c(Cl)c(Cl)c(Cl)c(Cl)c1-c1c2cc(I)c(=O)c(I)c-2oc2c(I)c([O-])c(I)cc12.[Na+].[Na+] [RB, 4,5,6,7-Tetrachloro-2′,4′,5′,7′-tetraiodofluorescein]",tumors fully ablated,[1],IL RB fully ablated 8/8 tumors 24
same,"objective response rate (ORR), target lesions",[2]; [4],48%
same,"target lesions with complete response (CR), RECIST",[2]; [4],36%
same,target lesions with partial response (PR),[2]; [4],12%
same,target lesions with progressive disease,[2]; [4],24%
same,target lesions with stable disease,[2]; [4],28%
same,"CR, non-target lesions individually",[2]; 26 evaluable nontarget lesions,15%
same,"ORR, non-target lesions individually",[2]; 26 evaluable nontarget lesions,27%
same,"PD, non-target lesions individually",[2]; 26 evaluable nontarget lesions,52%
same,"PR, non-target lesions individually",[2]; 26 evaluable nontarget lesions,12%
same,"CR, overall response per patient",[2]; [5],27%
same,"ORR, overall response per patient",[2]; [5],55%
same,"PR, overall response per patient",[2]; [5],27%
same,"progressive disease (PD), overall response per patient",[2]; [5],18%
same,"stable disease (SD), overall response per patient",[2]; [5],27%
same,CR,[2]; [6],62%
same,PR,[2]; [6],8%
same,successful chemoablation (CR + PR),[2]; [6],~70%
same,ORR of nontarget lesions,[2]; patients with a negative lesion response,0%
same,ORR of nontarget lesions,[2]; patients with a positive objective response of target lesions,44%
same,"CR, non-target lesions per patient",[2]; per patient basis,9%
same,"ORR, non-target lesions per patient",[2]; per patient basis,27%
same,"PD, non-target lesions per patient",[2]; per patient basis,27%
same,"PR, non-target lesions per patient",[2]; per patient basis,18%
same,Subsequent status,"[2]; per patient, some had subsequent other treatment",Alive at 34; also recorded: Dead at 12; also recorded: Dead at 9; also recorded: Alive at 31; also recorded: Alive at 27; also recorded: Dead at 8; also recorded: Alive at 28; also recorded: Alive at 29; also recorded: Alive at 30
same,adverse effects,[2]; single IL treatment,generally mild and transient
same,uptake into cancer cells versus normal cells,cancer cells,preferential uptake into cancer cells
same,tumor growth response,[3]; 0.1% RB (Group C),qualitatively and statistically equivalent to the control groups
same,#CR,"[3]; 0.1% RB, 5 mg/kg, IL, N=5",0
same,#PR/SD,"[3]; 0.1% RB, 5 mg/kg, IL, N=5",0
same,#CR + #PR/SD (%),"[3]; 0.1% RB, 5 mg/kg, IL, N=5",0 (0)
same,MST ± SEM (mean survival time to 2.0 g tumor),"[3]; 0.1% RB, 5 mg/kg, IL, N=5",27.0 ± 3.0 (5) days
same,clinical response of tumors,"[3]; 1% RB and higher, large fraction of tumors",localized tumor necrosis with rapid eschar formation
same,#CR,"[3]; 1% RB, 50 mg/kg, IL, N=12",1
same,#PR/SD,"[3]; 1% RB, 50 mg/kg, IL, N=12",1
same,#CR + #PR/SD (%),"[3]; 1% RB, 50 mg/kg, IL, N=12",2 (17)
same,MST ± SEM (mean survival time to 2.0 g tumor),"[3]; 1% RB, 50 mg/kg, IL, N=12",33.1 ± 4.5 (10) days
same,composite response (damage+necrosis/2) and mean severity of necrosis of tumor tissue,"[3]; 1%, 3% and 6% RB treatment groups",elevated
same,#CR,"[3]; 3% RB, 150 mg/kg, IL, N=17",3
same,#PR/SD,"[3]; 3% RB, 150 mg/kg, IL, N=17",3
same,#CR + #PR/SD (%),"[3]; 3% RB, 150 mg/kg, IL, N=17",6 (35)
same,MST ± SEM (mean survival time to 2.0 g tumor),"[3]; 3% RB, 150 mg/kg, IL, N=17",50.0 ± 7.0 (11) days
same,survival versus growth controls,"[3]; 6% RB (N=6), increased survival",not statistically different
same,#CR,"[3]; 6% RB, 300 mg/kg, IL, N=6",1
same,#PR/SD,"[3]; 6% RB, 300 mg/kg, IL, N=6",0
same,#CR + #PR/SD (%),"[3]; 6% RB, 300 mg/kg, IL, N=6",1 (17)
same,MST ± SEM (mean survival time to 2.0 g tumor),"[3]; 6% RB, 300 mg/kg, IL, N=6",35.4 ± 6.6 (5) days
same,#CR,"[3]; 10% RB, 500 mg/kg, IL, N=5",1
same,#PR/SD,"[3]; 10% RB, 500 mg/kg, IL, N=5",1
same,#CR + #PR/SD (%),"[3]; 10% RB, 500 mg/kg, IL, N=5",2 (40)
same,MST ± SEM (mean survival time to 2.0 g tumor),"[3]; 10% RB, 500 mg/kg, IL, N=5",52.2 ± 14.9 (3) days
same,systemic toxicity,"[3]; all tumour treatments, IL",well-tolerated
same,tolerability of intralesional injection,[3]; concentrations up to 10% (500 mg/kg),well tolerated by all animals
same,residual RB in perilesional tissue,[3]; terminal sacrifice,no residual RB
same,histology of tumor and peritumor tissue,"[3]; terminal sacrifice, no dose-related trends",minimal perilesional inflammation and damage
same,tumors completely ablated,MCF-7 [ER+] tumors,"[ER+] (4/4), MCF-7 [ER−] (4/4),"
